According to PubChem BioAssay (NCI):
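Where inhibition never reached the appropriate level, the endpoint shown equals the highest concentration tested. Otherwise, values were interpolated linearly from a five-concentration, 48-hour dose response in 96-well plates. At the TGI there is no net growth.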

Experiments:
Assay in all cases: DTP human tumour cell line panel, 48 h
[1] = system: CAKI-1 renal
[2] = system: SF-295 CNS
[3] = system: COLO 205 colon
[4] = system: A549 NSCLC
[5] = system: HT29 colon
[6] = system: RXF 393 renal
[7] = system: UO-31 renal
[8] = system: U251 CNS
[9] = system: SN12C renal
[10] = system: HL-60(TB) leukemia
[11] = system: SK-MEL-28 melanoma
[12] = system: UACC-62 melanoma
[13] = system: TK-10 renal
[14] = system: MDA-MB-231 breast
[15] = system: MOLT-4 leukemia
[16] = system: NCI-H460 lung
[17] = system: SNB-19 CNS
[18] = system: HCT-15 colon
[19] = system: MDA-MB-435
[20] = system: LOX IMVI melanoma
[21] = system: NCI-H23 lung
[22] = system: OVCAR-8 ovarian
[23] = system: SNB-75 CNS
[24] = system: OVCAR-4 ovarian
[25] = system: HCC-2998 colon
[26] = system: ACHN renal
[27] = system: NCI-H226 lung
[28] = system: HOP-62 NSCLC
[29] = system: SW-620 colon
[30] = system: HCT-116 colon
[31] = system: IGROV1 ovarian
[32] = system: HS 578T breast
[33] = system: UACC-257 melanoma
[34] = system: PC-3 prostate
[35] = system: OVCAR-5 ovarian
[36] = system: SK-OV-3 ovarian
[37] = system: T-47D breast
[38] = system: MALME-3M melanoma
[39] = system: K-562 leukemia
[40] = system: NCI/ADR-RES ovarian
[41] = system: SF-268 CNS
[42] = system: NCI-H522 lung
[43] = system: EKVX NSCLC
[44] = system: SK-MEL-2 melanoma
[45] = system: SK-MEL-5 melanoma
[46] = system: HOP-92 NSCLC
[47] = system: 786-0 renal
[48] = system: CCRF-CEM leukemia
[49] = system: RPMI-8226 leukemia
[50] = system: DU-145 prostate
[51] = system: OVCAR-3 ovarian
[52] = system: MCF7 breast
[53] = system: MDA-N
[54] = system: A498 renal
[55] = system: KM12 colon
[56] = system: M14 melanoma
[57] = system: SF-539 CNS

Measured: TGI

CN(CCCNCc1ccccn1)Cc1ccccc1O
92.2 µM: [33]
43.2 µM: [12]
> 100 µM: [1] | [4] | [6] | [8] | [9] | [10] | [11] | [14] | [15] | [16] | [18] | [19] | [20] | [22] | [23] | [24] | [25] | [28] | [29] | [30] | [31] | [32] | [34] | [35] | [36] | [37] | [38] | [39] | [41] | [42] | [43] | [44] | [46] | [47] | [48] | [49] | [50] | [51] | [52] | [53] | [54] | [55]
51.6 µM: [45]
97.8 µM: [27]
55.6 µM: [21]
19.8 µM: [7]
94.4 µM: [3] | [5]
68.5 µM: [17]
54.7 µM: [2]
42.3 µM: [26]
95.2 µM: [40]
64.8 µM: [13]

Cc1cn(CCCC2=NCCCN2)c(=O)[nH]c1=O
> 100 µM: [1] | [2] | [3] | [4] | [5] | [6] | [7] | [8] | [9] | [11] | [12] | [56] | [13] | [14] | [15] | [16] | [17] | [18] | [19] | [20] | [21] | [22] | [23] | [24] | [25] | [26] | [27] | [28] | [29] | [30] | [31] | [32] | [33] | [34] | [35] | [36] | [37] | [38] | [39] | [40] | [41] | [57] | [42] | [43] | [44] | [45] | [46] | [47] | [48] | [49] | [50] | [51] | [52] | [53] | [54] | [55]

CN(CCCN=C=S)CCCN1c2ccccc2CCc2ccccc21
3.45 µM: [16]
3.48 µM: [38]
2.69 µM: [25]
4.03 µM: [32]
2.94 µM: [5]
3.39 µM: [6]
4.29 µM: [46]
3.2 µM: [12]
3.21 µM: [1]
3.08 µM: [47]
3.46 µM: [57]
3.26 µM: [8] | [13]
3.5 µM: [55]
3.38 µM: [44]
3 µM: [7]
3.09 µM: [30]
3.11 µM: [21]
3.16 µM: [4] | [56] | [36] | [53]
2.9 µM: [18]
3.07 µM: [54]
3.92 µM: [37]
3.56 µM: [24]
> 100 µM: [15] | [39] | [48]
2.67 µM: [40]
3.14 µM: [17] | [51]
3.35 µM: [35]
3.17 µM: [9]
3.29 µM: [14]
3.22 µM: [50]
3.27 µM: [19]
3.43 µM: [22] | [45]
3.85 µM: [33]
3.24 µM: [41]
3.12 µM: [26]
